From patent US9457041B2, “Controlled release nanoparticles and methods of use” (NDSU Research Foundation, priority 2014, dated 2016)

Legend:
recombinant human MMP-9 = recombinant human MMP-9 (Homo sapiens, UniProt P14780); test: CD spectroscopy of triple helicity of nanovesicle-incorporated lipopeptide; assay type: biochemical
Excerpt: The lipopeptide LP [CH3(CH2)16CONH-[…](GPO)4GG-COOH] was synthesized by employing microwave assisted solid phase peptide synthesizer (Liberty, CEM Corporation, Matthews, S.C.) by following the protocol previously established in our laboratory (Pompella et al., Biochem pharm 2003, 66 (8), 1499-1503). The lipopeptide was purified by reverse phase HPLC (Shimadzu Scientific Instruments) using a diphenyl semi-preparatory column (Grace Vydac, 300 Å pore diameter silica, 5 μm particle size, 10 mm×250 mm) as the stationary phase. A linear gradient (0-70%) of acetonitrile (with 0.1% trifluoroacetic acid) in water (with 0.1% trifluoroacetic acid) was used at a flow rate of 8 mL/min over 60 min. The chromatogram was recorded at 235 nm using a UV detector. After freeze drying the eluents, the peptide was characterized employing MALDI-TOF mass spectrometry with an AB 4800 MALDI TOF/TOF mass analyzer. An observed mass of 2332.3 Da in MALDI spectra confirmed the LP (calculated mass: 2332.2 Da). The collagen mimetic triple helical structure of the lipopeptide was assessed by CD spectrometry employing a Jasco J-815 CD spectrometer with a quartz cuvette of 1 mm path length. The positive peak at 222 nm and the negative peak at 198 nm confirmed the triple helical structure of collagen mimetic peptide.20 For the CD spectroscopic studies, 32 accumulations were recorded for each spectra.

PANC-1 cells = test: Alamar Blue assay with a monolayer cell culture; assay type: cell-based; conditions: Homo sapiens, PANC-1 monolayer, 10 μM gemcitabine or equivalent encapsulated, 72 hours
Protocol: (§1) Pancreatic-cancer cell lines PANC-1 and MIAPaCa-2 were obtained from American Type Culture Collection (Manassas, Va.). PANC-1 cells were cultured in RPMI media (without phenol red) that were supplemented with 2% antibiotics (penicillin, streptomycin) and 10% v/v fetal bovine serum. The MIAPaCa-2 cells were cultured in DMEM media that were supplemented with 2% horse serum and 2% antibiotics. All cell lines were grown at 37° C. in a humidified atmosphere containing 5% CO2.
(§2) Cytotoxicity of the encapsulated gemcitabine was measured by treating the PANC-1 and MIAPaCa-2 cells with nanovesicles. The cells were incubated (1,000 per well) in a 96-well plate after trypsinizing the flask and making a cell suspension. RPMI media (100 μL) were added to each well. Cells were allowed to grow for one doubling time. The plate was divided into three groups: control, gemcitabine treated and gemcitabine-encapsulated nanovesicles treated. Six replicates were recorded for each sample. […] The treatment was carried out for 3 days, and cell toxicity was recorded after 72 hours with the Alamar Blue assay by following the supplier's (Life Technologies) protocol. Alamar Blue solution (10 μL) was added to all the wells and incubated for 2 hours, and the absorbance was recorded at 585 nm for cytotoxicity calculation (FIG. 15).

MIAPaCa-2 cells = test: Alamar Blue assay with a monolayer cell culture; assay type: cell-based; conditions: Homo sapiens, MIA PaCa-2, MIAPaCa-2 monolayer, 10 μM gemcitabine or equivalent encapsulated, 72 hours
Protocol: as §1, §2

Chain of recombinant human MMP-9 (P14780 94-707): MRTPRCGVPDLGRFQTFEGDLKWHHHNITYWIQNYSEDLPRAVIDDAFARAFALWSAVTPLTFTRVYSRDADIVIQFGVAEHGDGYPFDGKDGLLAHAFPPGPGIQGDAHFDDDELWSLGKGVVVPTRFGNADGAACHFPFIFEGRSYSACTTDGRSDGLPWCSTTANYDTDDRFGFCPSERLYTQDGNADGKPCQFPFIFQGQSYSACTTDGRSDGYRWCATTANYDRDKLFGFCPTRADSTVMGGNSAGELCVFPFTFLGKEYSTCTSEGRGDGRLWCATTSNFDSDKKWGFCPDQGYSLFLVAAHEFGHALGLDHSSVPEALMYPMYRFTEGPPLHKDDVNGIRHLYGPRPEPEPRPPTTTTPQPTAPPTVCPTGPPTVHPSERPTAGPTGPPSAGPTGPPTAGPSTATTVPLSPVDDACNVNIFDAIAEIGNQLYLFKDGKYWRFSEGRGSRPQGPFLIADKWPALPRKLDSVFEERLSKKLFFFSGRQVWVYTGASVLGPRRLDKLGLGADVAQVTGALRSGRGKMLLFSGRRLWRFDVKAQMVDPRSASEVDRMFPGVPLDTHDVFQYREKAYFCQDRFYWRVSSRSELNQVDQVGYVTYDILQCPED

Molecule	triple helicity of LP (CD) (recombinant human MMP-9; 2 μM recombinant human MMP-9, 60 minutes)	triple helicity of nanovesicle-incorporated LP (CD) (recombinant human MMP-9; GSH (50 μM), 1 hour)	viability at 10 µM (PANC-1 cells) [%]	viability at 10 µM (MIAPaCa-2 cells) [%]
CH3(CH2)16CONH-GPQGIAGQR(GPO)4GG-COOH [LP]	considerably reduced	unchanged	–	–
Nc1ccn([C@@H]2O[C@H](CO)[C@@H](O)C2(F)F)c(=O)n1 [gemcitabine]	–	–	30 to 35	45 to 50
